Measured values from patent US10118936B2, “Arginase inhibitors and methods of use” (ASTRAZENECA AB, priority 2009, dated 2018).
Entries after “also recorded” stand apart in the source; their conditions may differ. Counter-ions that a name gives are not always drawn.

What was measured:
[1] = target: T1, human arginase II (hArgII) (Homo sapiens, UniProt P78540); test: QuantiChrom colorimetric arginase inhibition assay, human arginase II; format: biochemical; conditions: IC50 from 12-concentration curve converted to Ki by Cheng-Prusoff equation
T1 sequence (P78540 23-354): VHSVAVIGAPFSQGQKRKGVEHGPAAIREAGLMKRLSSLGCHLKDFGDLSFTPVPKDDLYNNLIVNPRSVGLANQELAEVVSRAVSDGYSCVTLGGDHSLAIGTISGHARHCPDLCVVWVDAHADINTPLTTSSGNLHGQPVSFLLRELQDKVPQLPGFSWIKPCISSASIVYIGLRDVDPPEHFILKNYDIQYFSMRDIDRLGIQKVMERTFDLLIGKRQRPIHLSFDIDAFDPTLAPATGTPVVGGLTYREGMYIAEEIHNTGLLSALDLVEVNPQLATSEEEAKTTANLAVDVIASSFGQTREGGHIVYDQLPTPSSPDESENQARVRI
Method: (§1) Quantitative determination of arginase activity was performed by a colorimetric method using the QuantiChrom™ Arginase Assay Kit available from BioAssay Systems (Hayward, Calif., Catalog No. DARG-200), which was used according to the manufacture's protocol. Briefly, the method utilizes a chromogen that forms a colored complex specifically with urea produced in the arginase reaction. […] The intensity of the color is directly proportional to the arginase activity in the sample.
(§2) The rate of urea production was measured in the presence of twelve different concentrations of each potential inhibitor compound. The half maximal inhibitory concentration (IC50) was determined by constructing a dose-response curve. As IC50 values are dependent upon the measurement conditions, the IC50 values are converted to the inhibitor binding affinity (Ki) using the Cheng-Prusoff equation and the measured affinity constant (Km) of L-arginine.

human arginase I (hArgI) = target: T2, human arginase I (hArgI) (Homo sapiens, UniProt P05089); test: QuantiChrom colorimetric arginase inhibition assay, human arginase I; format: biochemical; conditions: IC50 from 12-concentration curve converted to Ki by Cheng-Prusoff equation
T2 sequence (P05089 1-322): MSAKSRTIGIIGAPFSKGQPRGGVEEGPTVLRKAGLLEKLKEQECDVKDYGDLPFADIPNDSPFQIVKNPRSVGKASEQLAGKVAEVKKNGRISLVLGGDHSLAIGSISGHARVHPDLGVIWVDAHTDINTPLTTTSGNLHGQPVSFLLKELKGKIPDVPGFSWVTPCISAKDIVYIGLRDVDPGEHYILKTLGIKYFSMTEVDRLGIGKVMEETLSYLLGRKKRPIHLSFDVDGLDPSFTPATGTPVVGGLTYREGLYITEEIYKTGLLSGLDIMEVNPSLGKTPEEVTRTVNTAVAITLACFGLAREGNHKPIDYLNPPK
Method: as §1, §2

arginase = test: Arginase inhibition, potency comparisons (isoform not stated); format: biochemical, human; conditions: relative potency statements in text
Method: Quantitative determination of arginase activity was performed by a colorimetric method using the QuantiChrom™ Arginase Assay Kit available from BioAssay Systems (Hayward, Calif., Catalog No. DARG-200), which was used according to the manufacture's protocol. Briefly, the method utilizes a chromogen that forms a colored complex specifically with urea produced in the arginase reaction. See, Mellerup, “Colorimetric method for rapid determination of serum arginase,” Clin. Chem. 13, 900-08 (1967). The intensity of the color is directly proportional to the arginase activity in the sample.
The rate of urea production was measured in the presence of twelve different concentrations of each potential inhibitor compound. The half maximal inhibitory concentration (IC50) was determined by constructing a dose-response curve. As IC50 values are dependent upon the measurement conditions, the IC50 values are converted to the inhibitor binding affinity (Ki) using the Cheng-Prusoff equation and the measured affinity constant (Km) of L-arginine. See, e.g., Cheng et al., “Relationship between the inhibition constant (K1) and the concentration of inhibitor which causes 50 percent inhibition (I50) of an enzymatic reaction,” Biochem. Pharmacol. 22, 3099-108 (1973).
In Table 6, the Ki values reflect the potency of these molecules to inhibit the catalytic activity of arginase to produce urea from the substrate L-arginine. […] That is, racemic materials were compared to racemic controls. Thus, there are several examples that have similar potencies to Rac-ABH.
Shortening the alkyl chain by one carbon atom as in the phenoxyethyl compound 1ad also results in a potency loss. Thus, there appears to be definitive structure-activity features that results in increased potency at the molecular target, arginase, in these α,α-disubstituted derivatives.

[2] = cited from earlier work
microvasculature = conditions: subcutaneous administration in humans; cited from earlier work
erectile response = conditions: live male rabbits; cited from earlier work
[3] = tested on: airway hyperresponsiveness; conditions: guinea pigs, allergic asthma model, nebulizer treatment; cited from earlier work
[4] = tested on: genitalia engorgement response; conditions: live female rabbits; cited from earlier work
[5] = tested on: experimental autoimmune encephalomyelitis; conditions: cited from earlier work
[6] = tested on: corpus cavernosum of the diabetic person; conditions: ex vivo; cited from earlier work
[7] = tested on: rabbit and human penile corpus cavernosum; conditions: cited from earlier work
[8] = tested on: opossum internal anal sphincter muscle; conditions: cited from earlier work

Row | Compound | Ki [1] [µM] | Ki (human arginase I (hArgI)) [µM] | further results
1 | NC(CCCCB(O)O)C(=O)O (racemic) [Rac-ABH, reference compound] | 0.01 to 0.1 | 0.0001 to 0.01 | 
2 | NC(CCCCB(O)O)(CCCN1CCNCC1)C(=O)O (stereo not shown) [Compound 1ba] | 0.01 to 0.1 | 0.01 to 0.1 | 
3 | Cl.NC(CCCCB(O)O)(CCCOc1ccccc1)C(=O)O (stereo not shown) [Compound 1d, 2-Amino-6-(borono-2-(3-phenoxypropyl)hexanoic acid hydrochloride] | 0.0001 to 0.01 | 0.0001 to 0.01 | 
4 | N[C@@](CO)(CCCCB(O)O)C(=O)O (single isomer, unassigned) [Compound 1ar] | 0.0001 to 0.01 | 0.0001 to 0.01 | potency as arginase inhibitor, compared in words (arginase): most potency as an arginase inhibitor by two orders of magnitude compared to compound 1as; also recorded: as potent as ABH; also recorded: almost two orders of magnitude) more potent than the other enantiomer
5 | NC(CCCCB(O)O)(CC(=O)c1ccccc1)C(=O)O (stereo not shown) [Compound 1ax, 2-Amino-6-borono-2-(2-oxo-2-phenylethyl)hexanoic acid hydrochloride] | 0.01 to 0.1 | 0.01 to 0.1 | 
6 | NC(CCCCB(O)O)(CCOc1cccc(Cl)c1)C(=O)O (stereo not shown) [Compound 1ad, 2-Amino-6-borono-2-(2-(3-chlorophenoxy)ethyl)hexanoic acid] | 0.01 to 0.1 | 0.01 to 0.1 | potency as arginase inhibitor, compared in words (arginase): potency loss
7 | CC(N)(CCNC(N)=NO)C(=O)O (stereo not shown) [Compound 54a, 2-Amino-4-(2-hydroxyguanidino)-2-methylbutanoic acid dihydrochloride] | 0.1 to 0.5 | 0.1 to 0.5 | 
8 | NC(CCCCB(O)O)(CCCC1CCNCC1)C(=O)O (stereo not shown) [Compound 1az, 2-Amino-6-borono-2-(3-(piperidin-4-yl)propyl)hexanoic acid] | 0.0001 to 0.01 | 0.0001 to 0.01 | 
9 | N=C(NO)NCC[C@H](N)C(=O)O [Nor-NOHA, N^ω-hydroxy-nor-1-arginine, reference compound] | 0.1 to 0.5 |  | 
10 | CCC(=O)CC(N)(CCCCB(O)O)C(=O)O (stereo not shown) [Compound 1aw, 2-Amino-6-borono-2-(2-oxobutyl)hexanoic acid hydrochloride] | 0.01 to 0.1 | 0.01 to 0.1 | 
11 | CC[C@H](C)C(=O)O[C@H]1C[C@@H](C)C=C2C=C[C@H](C)[C@H](CC[C@@H]3C[C@@H](O)CC(=O)O3)[C@H]21 [lovastatin, reference compound] |  |  | half-life of lactone hydrolysis ([2]; gastric pH and temperature): about 1 hour
12 | NC(CCCCB(O)O)(Cc1ccccc1)C(=O)O (stereo not shown) [Compound 1a, 2-Amino-2-benzyl-6-boronohexanoic acid hydrochloride] | 0.1 to 0.5 | 0.1 to 0.5 | 
13 | N#Cc1ccc(C(=O)NCCOCCC(N)(CCCCB(O)O)C(=O)O)cc1 (stereo not shown) [Compound 38a, 2-Amino-6-borono-2-(2-(2-(4-cyanobenzamid)ethoxy)ethyl)hexanoic acid trifluoroacetate] | 0.01 to 0.1 | 0.01 to 0.1 | 
14 | NC(CCCCB(O)O)(CCCCc1ccccc1)C(=O)O (stereo not shown) [Compound 1e, 2-Amino-6-borono-2-(4-phenylbutyl)hexanoic acid] | 0.01 to 0.1 | 0.01 to 0.1 | 
15 | COc1cccc(NC(=O)N2CCN(CCCC(N)(CCCCB(O)O)C(=O)O)CC2)c1 (stereo not shown) [Compound 39c, 2-Amino-6-borono-2-(3-(4-(3-methoxyphenylcarbamoyl)piperazin-1-yl)propyl)hexanoic acid] | 0.01 to 0.1 | 0.01 to 0.1 | 
16 | CC(N)(CCCCB(O)O)C(=O)O (stereo not shown) [Compound 1ao, 2-Amino-6-borono-2-methylhexanoic acid hydrochloride] | 0.01 to 0.1 | 0.0001 to 0.01 | 
17 | CC(=O)NCCOCCC(N)(CCCCB(O)O)C(=O)O (stereo not shown) [Compound 38b, 2-(2-(2-Acetamidoethoxy)ethyl)-2-amino-6-boronohexanoic acid] | 0.1 to 0.5 | 0.1 to 0.5 | 
18 | CC(C)CC(N)(CCCCB(O)O)C(=O)O (stereo not shown) [Compound 1ap, 2-Amino-6-borono-2-isobutylhexanoic acid hydrochloride] | 0.01 to 0.1 | 0.01 to 0.1 | 
19 | COc1cccc(NC(=O)NCCOCCC(N)(CCCCB(O)O)C(=O)O)c1 (stereo not shown) [Compound 39a, 2-Amino-6-borono-2-(2-(2-(3-(3-methoxyphenyl)ureido)ethoxy)ethyl)hexanoic acid] | 0.01 to 0.1 | 0.01 to 0.1 | 
20 | S-(2-boronoethyl)-1-cysteine [BEC] |  |  | vasodilation and circulation (microvasculature): vasodilatory and enhances circulation
21 | Cl.NC(CCCCB(O)O)(CCOCc1ccccc1)C(=O)O (stereo not shown) [Compound 1aa, 2-Amino-2-(benzyloxyethyl)-6-boronohexanoic acid hydrochloride] | 0.01 to 0.1 | 0.01 to 0.1 | potency as arginase inhibitor, compared in words (arginase): potency is lost
22 | N[C@@H](CCCCB(O)O)C(=O)O [ABH, 2(S)-amino-6-borono-hexanoic acid] | 0.0001 to 0.01 | 0.0001 to 0.01 | erectile response (erectile response): enhances the erectile response in live male rabbits; airway hyperresponsiveness [3]: prevents airway hyperresponsiveness; engorgement response in the genitalia [4]: enhances the engorgement response in the genitalia of live female rabbits; disease score [5]: improves the disease score of animals; NO biosynthesis [6]: restores NO biosynthesis; NO-dependent relaxation of corpus cavernosum [7]: enhances the NO-dependent relaxation of this tissue; relaxation of internal anal sphincter muscle [8]: relax this muscle
23 | Cc1ccc(S(=O)(=O)NCCCCC(N)(CCCCB(O)O)C(=O)O)cc1 (stereo not shown) [Compound 40a, 2-Amino-6-borono-2-(4-(4-methylphenylsulfonamido)butyl)hexanoic acid] | 0.01 to 0.1 | 0.01 to 0.1 | 
24 | NCCCCC(N)(CCCCB(O)O)C(=O)O (stereo not shown) [Compound 1bb, 2,6-Diamino-2-(4-boronobutyl)hexanoic acid] | 0.0001 to 0.01 | 0.0001 to 0.01 | 
25 | N[C@](CO)(CCCCB(O)O)C(=O)O (single isomer, unassigned) [Compound 1as] | 0.1 to 0.5 | 0.1 to 0.5 | 
26 | O=C1CCc2ccccc2O1 [dihydrocoumarin] |  |  | half-life ([2]; 37° C. in the stomach): about 1 hour
27 | Cl.NC(CCCCB(O)O)(CCCOc1ccccc1)C(=O)O (stereo not shown) [Compound 1d] |  |  | potency as arginase inhibitor, compared in words (arginase): as potent as Rac-ABH
28 | NC(CO)(CCCCB(O)O)C(=O)O (stereo not shown) [Compound 1aq, 2-Amino-6-borono-2-(hydroxymethyl)hexanoic acid hydrochloride] | 0.01 to 0.1 | 0.0001 to 0.01 | 
29 | Cl.NC(CCCO)(CCCCB(O)O)C(=O)O (stereo not shown) [Compound 1ak, 2-Amino-6-borono-2-(3-hydroxypropyl)hexanoic acid hydrochloride] |  |  | potency as arginase inhibitor, compared in words (arginase): less potent
30 | NC(CCCCB(O)O)(CCCOc1ccc(F)cc1)C(=O)O (stereo not shown) [Compound 1h, 2-Amino-6-borono-2-(3-(4-fluorophenoxy)propyl)hexanoic acid] | 0.01 to 0.1 | 0.0001 to 0.01 | 
